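In this assay, cells in 96-well plates receive the compound at five concentrations for 48 hours. Endpoints are linearly interpolated between the surrounding concentrations. TGI denotes the concentration required for complete inhibition of growth.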
Legend:
Experiment in all cases: growth of human tumour cells (NCI), 48 h
MDA-N = test system: MDA-N
T-47D breast = test system: T-47D breast
CAKI-1 renal = test system: CAKI-1 renal
SK-MEL-2 melanoma = test system: SK-MEL-2 melanoma
NCI-H226 lung = test system: NCI-H226 lung
NCI-H460 lung = test system: NCI-H460 lung
NCI-H522 lung = test system: NCI-H522 lung
IGROV1 ovarian = test system: IGROV1 ovarian
SNB-19 CNS = test system: SNB-19 CNS
TK-10 renal = test system: TK-10 renal

Row | Structure (SMILES) | TGI (MDA-N) [µM] | TGI (T-47D breast) [µM] | TGI (CAKI-1 renal) [µM] | TGI (SK-MEL-2 melanoma) [µM] | TGI (NCI-H226 lung) [µM] | TGI (NCI-H460 lung) [µM] | TGI (NCI-H522 lung) [µM] | TGI (IGROV1 ovarian) [µM] | TGI (SNB-19 CNS) [µM] | TGI (TK-10 renal) [µM]
1 | Cc1ccc(C(=O)Nc2ccc(S(=O)(=O)O)c3cc(S(=O)(=O)O)cc(S(=O)(=O)O)c23)cc1NC(=O)c1cccc(NC(=O)Nc2cccc(C(=O)Nc3cc(C(=O)Nc4ccc(S(=O)(=O)O)c5cc(S(=O)(=O)O)cc(S(=O)(=O)O)c45)ccc3C)c2)c1 (tested in a mixture with another compound) | > 50 | > 50 | > 50 | > 50 | > 50 | > 50 | > 50 | > 50 | > 50 | –
2 | CCOC(=O)C(C(=O)OCC)=C1NC2(c3ccccc3Nc3ccc(C)cc32)C(C(=O)OC)S1 (stereo not drawn) | > 100 | 67.2 | > 100 | 63.1 | > 100 | > 100 | > 100 | > 100 | > 100 | > 100
3 | NC(=O)c1nnsc1NC=O | > 100 | > 100 | > 100 | > 100 | > 100 | > 100 | > 100 | > 100 | > 100 | –
4 | CC1CCc2sc3[nH]c(=S)n(-c4ccccc4)c(=O)c3c2C1 (stereo not drawn) | > 100 | > 100 | > 100 | 93.7 | > 100 | > 100 | > 100 | > 100 | > 100 | > 100
5 | CC(NC(=O)C(N)CC(=O)O)NC(=O)N(C)C(C)(C)C (stereo not drawn) | > 100 | > 100 | > 100 | > 100 | > 100 | > 100 | > 100 | > 100 | > 100 | > 100
6 | C=C(C(=O)OC)c1cc2ccccc2n1S(=O)(=O)c1ccccc1 | 14 | 5.51 | 2.4 | 10.5 | 7.22 | 8.23 | 2.54 | 4.21 | 34 | 3.91
7 | Cc1ccc(S(=O)(=O)NC(=O)NC(Cc2ccc(O)c(O)c2)C(=O)O)cc1 (stereo not drawn) | > 100 | > 100 | > 100 | > 100 | > 100 | > 100 | > 100 | > 100 | > 100 | > 100
8 | S=C(Nc1ccccn1)Nc1ccccc1Cl | > 100 | > 100 | > 100 | > 100 | > 100 | > 100 | 37.9 | > 67 | > 31.6 | > 100
9 | CC(C)(C)[C@H]1CCC2(OCCO2)[C@](O)(CCCO)C1 | > 100 | > 100 | > 100 | > 100 | > 100 | > 100 | > 100 | > 100 | > 100 | > 100
10 | CC1(C)CCC(=O)NC1CC(=O)CC1NC(=O)CCC1(C)C (stereo not drawn) | > 100 | > 100 | > 100 | > 100 | > 100 | > 100 | > 100 | > 100 | > 100 | > 100
11 | COc1ccc(-c2cc(-c3cc(F)c(Cl)cc3Cl)on2)cc1OC | 41 | > 100 | > 100 | 97.7 | 80.6 | > 100 | > 100 | > 100 | > 100 | > 100
12 | CC(=O)N1c2ccccc2C(C)C1c1[nH]c2ccccc2c1C (stereo not drawn) | 50.6 | 91.5 | 70.6 | 40.2 | 72.3 | > 100 | 49.2 | > 100 | > 100 | 76.1
13 | N=c1c2c(=S)n(-c3ccccc3)c(=S)n(-c3ccccc3)c2nc(SCCN2CCOCC2)n1-c1ccccc1 | 4.99 | 8.03 | 3.99 | 8.17 | 15.5 | 5.96 | 3.16 | 3.36 | 24 | 3.1
14 | Cc1ccc(S(=O)(=O)N2CCNCCN(S(=O)(=O)c3ccc(C)cc3)CCN(S(=O)(=O)c3ccc(C)cc3)CC2)cc1 | > 100 | > 100 | > 100 | > 100 | > 100 | > 100 | > 100 | > 100 | > 100 | > 100
15 | C#CCn1c(=O)c(Cl)cn(/C(=C/C(=O)OCC)C(=O)OCC)c1=O | 29.9 | 5.27 | 7.37 | 35.6 | > 59.5 | > 100 | 12.6 | 35.1 | > 66.7 | 8.09
16 | CC(C)C1CC[C@H](C)C[C@@H]1OC(=O)C(C(=O)O[C@H]1C[C@@H](C)CCC1C(C)C)C(O)[C@@H]1OC(C)(C)O[C@H]1C1COC(C)(C)O1 (stereo partly drawn) | 35.4 | 32.3 | 34.6 | 38.2 | 41.2 | 32.1 | 3.95 | 30.4 | 29.8 | 37.1
17 | CC(=O)NC(Cc1ccc(OP(=O)(OCc2ccc([N+](=O)[O-])o2)N(C)CCCCCl)cc1)C(=O)NC(C)c1ccc(OCC2CCCCC2)c(C(N)=O)c1 (stereo not drawn) | 5.22 | 6.31 | > 100 | 9.2 | 21.2 | 15.2 | 12 | 7.01 | 14.9 | 32
18 | N#Cc1nc(CCC(c2nc(C#N)c(N)o2)N2C(=O)c3ccccc3C2=O)oc1N (stereo not drawn) | > 100 | > 100 | > 100 | > 100 | > 100 | > 100 | > 100 | > 100 | > 100 | > 100
19 | c1ccc(C(CCN2CC3CCC(CC3)C2)c2ccccc2)cc1 | 58.9 | 49.1 | > 100 | 37.8 | 35.6 | 28.9 | 31.9 | > 100 | > 100 | 72.7
20 | C=CCN(c1cc(OC)c2[nH]cc(C)c2c1[N+](=O)[O-])S(C)(=O)=O | > 100 | > 100 | > 100 | > 100 | > 100 | > 100 | > 100 | > 100 | > 100 | > 100

Row | Structure (SMILES) | TGI (MDA-N) [µM] | TGI (T-47D breast) [µM] | TGI (CAKI-1 renal) [µM] | TGI (SK-MEL-2 melanoma) [µM] | TGI (NCI-H226 lung) [µM] | TGI (NCI-H460 lung) [µM] | TGI (NCI-H522 lung) [µM] | TGI (IGROV1 ovarian) [µM] | TGI (SNB-19 CNS) [µM] | TGI (TK-10 renal) [µM]
21 | CC(=O)OCC1=C(C)C[C@H]([C@@H](COC(C)=O)C2CCC3C4C[C@H]5O[C@]56CC=CC(=O)[C@]6(C)C4CC[C@@]32C)OC1=O (stereo partly drawn) | 0.675 | 1.41 | 2.64 | 1.64 | 1.74 | 2.91 | 0.592 | 0.849 | 7.72 | 19.2
22 | COC(=O)c1cc(C(=CCC[C@H]2CC[C@@]3(C)C(CCC4C3CC[C@@]3(C)C4CC[C@@H]3C(C)CCCC(C)C)C2)c2cc(Cl)c(OC(=O)c3ccccc3)c(C(=O)OC)c2)cc(Cl)c1OC(=O)c1ccccc1 (stereo partly drawn) | > 10 | > 10 | > 10 | > 10 | > 10 | > 10 | > 10 | > 10 | > 10 | > 10
23 | c1ccc2nc(CCC3CCCCN3)ccc2c1 (stereo not drawn) | > 100 | > 100 | > 100 | > 100 | > 100 | > 100 | > 100 | > 100 | > 100 | > 100
24 | COc1cc2c(cc1OCCCC(=O)Nc1cc(C(=O)NCCCN(C)C)n(C)n1)N=CC1CCCN1C2=O (stereo not drawn) | 73.2 | > 100 | 50.9 | 32.7 | > 38.2 | > 100 | 15.1 | > 23.5 | > 37.4 | 14.9
25 | C#CC(O)/C=C/C(O)CCCC(O)CC#CC(O)C#CC(O)CCCC(O)/C=C/CCCC(=O)CCCCCCCCCCCCCCCC(O)C(O)C#CC(=O)O (stereo not drawn) | > 50 | > 50 | > 50 | > 50 | > 50 | > 50 | 17.5 | 21.1 | > 50 | > 50
26 | c1ccc(N=C2SC3=NCCN3C2=Nc2ccccc2)cc1 | 41.2 | 44.4 | 38.2 | 76.5 | 36.3 | 50.6 | 30.4 | – | 32.5 | –
27 | COc1cc2c(cc1OC)-c1cc3cc(OC)c(OC)cc3c(=O)n1CC2 | > 100 | 8.34 | > 30.3 | > 72.9 | > 85.9 | > 100 | > 25.7 | > 62.3 | > 100 | > 100
28 | O=C(OCCC12CC3CC(CC(C3)C1)C2)c1ccc(NCc2cc(O)ccc2O)cc1 | 3.38 | 0.584 | 1.11 | 2.83 | 8.62 | > 100 | 0.35 | 0.277 | 3.23 | 4.65
29 | Clc1nc(Cl)c(CBr)c(Cl)n1 | 13.2 | 36.1 | 23.3 | 43.1 | > 51.7 | 18.5 | 2.92 | 14.1 | 33.3 | 16.9
30 | CC1(CC2=C(C(=O)NCCO[Si](C)(C)C(C)(C)C)C3(OCCO3)C2=O)OCCO1 | > 100 | > 100 | > 100 | > 100 | > 100 | > 100 | 93.7 | > 100 | > 100 | > 100
31 | CC(Cc1ccccc1)NC1=NCCO1 (stereo not drawn) | 72.3 | > 100 | > 100 | > 100 | > 100 | 36.6 | > 100 | > 100 | > 100 | –
32 | CC(=O)O[C@H]1C[C@H]2C(=S)Nc3ccccc3C(=S)N2C1 | > 100 | > 100 | > 100 | > 100 | > 100 | > 100 | > 100 | > 100 | > 100 | > 100
33 | Clc1ncc(Cl)c(Cl)n1 | 11 | 10 | 3.25 | 6.08 | 19 | > 100 | 5.69 | 23.3 | 10.3 | 23.1
34 | O=C(N/N=C\c1ccccc1)Nc1cccc2ccccc12 | > 100 | 48.2 | > 100 | 95.3 | 83.6 | > 100 | > 100 | > 100 | > 100 | > 100
35 | COC(=O)c1ccccc1C1CN=NC12Cc1cccc(C)c1C2=O (stereo not drawn) | > 100 | 56.4 | > 100 | > 100 | > 100 | > 100 | > 100 | > 100 | > 100 | > 100
36 | Nn1c(Cc2ccccc2)n[nH]c1=O | > 100 | > 100 | > 100 | > 100 | > 100 | – | > 100 | > 100 | > 100 | > 100
37 | CCOC(=O)Cn1c(=O)c2cc(-c3ccccc3)cc3c(Cl)nc4c(OC)c(OC)cc1c4c32 | 43.2 | > 100 | > 100 | 35.4 | > 100 | 39.1 | 39.4 | 27.5 | 55 | 99.4
38 | NC(=O)CC(N=C1C(=O)OC(C(O)CO)C1=NC(CC(N)=O)C(=O)O)C(=O)O (stereo not drawn) | > 100 | > 100 | > 100 | > 100 | > 100 | > 100 | > 100 | > 100 | > 100 | > 100
39 | Oc1cccc(-c2cn3cc(C(F)(F)F)ccc3n2)c1 | > 100 | 21.2 | > 100 | > 100 | > 100 | > 100 | 35.4 | > 100 | > 100 | 73.3
40 | O=C(OCc1ccccc1)N1CCN(C(=O)OCc2ccccc2)CCN(C(=O)OCc2ccccc2)CCN(C(=O)OCc2ccccc2)CCN(C(=O)OCc2ccccc2)CC1 | > 100 | > 100 | > 100 | > 100 | > 100 | > 100 | > 100 | – | > 100 | > 100

Reference: PubChem BioAssay (NCI)
